Assay results from patent publication US9512175B2, “Macrocyclic inhibitors of flaviviridae viruses” (Gilead Sciences, Inc., priority 2012, dated 2016).
Read-outs that look alike come from different tables or passages of the source.

How the values were obtained:
[1] = rcm bond
[2] = from C=Cc1ccc2ccc([C@@H](C)OC(=O)[C@@H]3CCCN(C(=O)[C@H](C)NC(=O)[C@@H](NC(=O)[C@@H](/C=C/C)CC4CC4)C(C)C)N3)nc2c1; rcm bond; 21-membered ring; Hoveyda-Grubbs II (3x20 mol%); 1,2-dichloroethane; 2.44 mM; 80.0 °C
[3] = test system: HCV replicon (Replicon 1a); assay: anti-HCV activity in Huh-7 cell line harboring a HCV replicon (Replicon 1a); type: cell-based; conditions: for inhibition at 1 µM: Hepatitis C virus, Huh-7, 72 h, read-out: Replicon 1a % inhibition at 1 μM, 1 μM, human hepatoma Huh-7 HCV replicon cells, 3 days, luciferase readout
cyclophilin A = cyclophilin A (Homo sapiens, UniProt P62937); assay: Cyclophilin A TR-FRET competitive binding assay; conditions: IC50 ranges; competition with CsA-Cy5 for His-tagged CypA, two-hour incubation; read-out: TR-FRET
Sequence of cyclophilin A (P62937 whole entry, species assumed): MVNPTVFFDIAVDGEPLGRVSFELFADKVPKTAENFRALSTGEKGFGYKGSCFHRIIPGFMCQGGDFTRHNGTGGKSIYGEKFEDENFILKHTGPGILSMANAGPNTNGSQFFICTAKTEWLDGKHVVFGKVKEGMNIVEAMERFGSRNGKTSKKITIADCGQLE
Method: Cyclophilin A TR-FRET Competitive Binding Assay
Inhibitor potency was measured using a competitive binding assay with a time-resolved fluorescence resonance energy transfer (TR-FRET) readout. […] An IC50 value was calculated using a four-parameter logistic fit.

Compound | inhibition at 1 µM [3] | IC50 (cyclophilin A) | also measured
CC(C)[C@@H]1NC(=O)C=Cc2cc3cc(ccc3cn2)[C@@H](C)NC(=O)[C@@H]2CCCN(N2)C(=O)[C@H](C)NC1=O | – | – | ring closure, isolated yield ([1]; from C=Cc1cc2cc([C@@H](C)NC(=O)[C@@H]3CCCN(C(=O)[C@H](C)NC(=O)[C@@H](NC(=O)/C=C/C)C(C)C)N3)ccc2cn1, 20-membered ring, Hoveyda-Grubbs II (2 x 10 mol%), toluene, 3.86 mM): 1.2%
CC(C)[C@@H]1NC(=O)CC=Cc2cc3cc(ccc3cn2)[C@@H](C)NC(=O)[C@@H]2CCCN(N2)C(=O)[C@H](C)NC1=O | – | – | ring closure, isolated yield ([1]; from C=CCC(=O)N[C@H](C(=O)N[C@@H](C)C(=O)N1CCC[C@@H](C(=O)N[C@H](C)c2ccc3cnc(C=C)cc3c2)N1)C(C)C, 21-membered ring, Hoveyda-Grubbs II (2 x 10 mol%), toluene, 3.86 mM): 1%
CC(C)[C@@H]1NC(=O)[C@H](CC2CC2)C=Cc2ccc3ccc(nc3c2)[C@@H](C)OC(=O)[C@@H]2CCCN(N2)C(=O)[C@H](C)NC1=O | – | – | ring closure, yield after HPLC [2]: 1.3%
CC(C)[C@@H]1NC(=O)[C@]2(/C=C/c3ccc4ccc(nc4c3)[C@@H](C)OC(=O)[C@@H]3CCCN(N3)C(=O)[C@H](C)NC1=O)CC[C@H](O)CC2 [Compound 158] | 100% | < 100 nM | –
CC(C)[C@@H]1NC(=O)[C@]2(/C=C/c3ccc4ccc(nc4c3)[C@@H](C)OC(=O)[C@@H]3CCCN(N3)C(=O)[C@H](C)NC1=O)CC[C@@H](O)CC2 [Compound 160] | 98% | < 100 nM | –
CC(C)[C@@H]1NC(=O)[C@]2(CCc3ccc4ccc(nc4c3)[C@@H](C)OC(=O)[C@@H]3CCCN(N3)C(=O)[C@H](C)NC1=O)CC[C@H](O)CC2 [Compound 161] | – | < 100 nM | Replicon 1a % inhibition at 1 μM [3]: 95%
Cc1cc2ccc(/C=C/C(C)(C)C(=O)N[C@H](C(=O)N[C@@H](C)C(=O)N3CCC[C@@H](C(=O)O)N3)C(C)C)cc2nc1[C@@H](C)O [Compound 162] | 0% | 1000 to 10000 nM | –
Cc1cc2ccc3cc2nc1[C@@H](C)OC(=O)[C@@H]1CCCN(N1)C(=O)[C@H](C)NC(=O)[C@H](C(C)C)NC(=O)C(C)(C)/C=C/3 [Compound 163] | 100% | < 100 nM | –
CC(C)C(=O)O[C@@H](C)[C@H]1/C=C/c2ccc3ccc(nc3c2)[C@@H](C)OC(=O)[C@@H]2CCCN(N2)C(=O)[C@H](C)NC(=O)[C@H](C(C)C)NC1=O [Compound 165] | 100% | < 100 nM | –
CC(C)[C@H](NC(=O)[C@H](/C=C/c1ccc2ccc([C@@H](C)O)nc2c1)[C@H](C)O)C(=O)N[C@@H](C)C(=O)N1CCC[C@@H](C(=O)O)N1 [Compound 166] | 0% | 1000 to 10000 nM | –
CC(C)[C@H](N)C(=O)O[C@@H](C)[C@H]1/C=C/c2ccc3ccc(nc3c2)[C@@H](C)OC(=O)[C@@H]2CCCN(N2)C(=O)[C@H](C)NC(=O)[C@H](C(C)C)NC1=O [Compound 167] | 97% | < 100 nM | –
CC(C)OC(=O)OCO[C@@H](C)[C@H]1/C=C/c2ccc3ccc(nc3c2)[C@@H](C)OC(=O)[C@@H]2CCCN(N2)C(=O)[C@H](C)NC(=O)[C@H](C(C)C)NC1=O [Compound 168] | 100% | < 100 nM | –
CC(C)[C@@H]1NC(=O)C(C)(C)/C=C/c2ccc3ccc(nc3c2F)[C@@H](C)OC(=O)[C@@H]2CCCN(N2)C(=O)[C@H](C)NC1=O [Compound 170] | 100% | < 100 nM | –
CC(=O)O[C@@H](C)[C@H]1/C=C/c2ccc3ccc(nc3c2)[C@@H](C)OC(=O)[C@@H]2CCCN(N2)C(=O)[C@H](C)NC(=O)[C@H](C(C)C)NC1=O [Compound 171] | 99% | < 100 nM | –
CCCC(=O)O[C@@H](C)[C@H]1/C=C/c2ccc3ccc(nc3c2)[C@@H](C)OC(=O)[C@@H]2CCCN(N2)C(=O)[C@H](C)NC(=O)[C@H](C(C)C)NC1=O [Compound 172] | 100% | < 100 nM | –
CC(C)[C@@H]1NC(=O)[C@]2(/C=C/c3ccc4ccc(nc4c3)[C@@H](C)OC(=O)[C@@H]3CCCN(N3)C(=O)[C@H](C)NC1=O)CC[C@@](C)(O)CC2 [Compound 173] | 99% | < 100 nM | –
CC(C)[C@@H]1NC(=O)[C@]2(/C=C/c3ccc4ccc(nc4c3)[C@@H](C)OC(=O)[C@@H]3CCCN(N3)C(=O)[C@H](C)NC1=O)CC[C@](C)(O)CC2 [Compound 174] | 99% | < 100 nM | –
Cc1cc2ccc3cc2nc1[C@@H](C)NC(=O)[C@@H]1CCCN(N1)C(=O)[C@H](C)NC(=O)[C@H](C(C)C)NC(=O)C(C)(C)/C=C/3 [Compound 175] | 85% | < 100 nM | –
(E)-pent-3-enoyl-hPhe-Ala-Piz-O-(R)-1-(3-vinyl-isoquinolin-6-yl)ethyl ester? | – | – | ring closure, isolated yield ([1]; the molecule shown is the open-chain precursor, 21-membered ring, Hoveyda-Grubbs II (portions), chlorobenzene, 4.8 mM, 110.0 °C): 12%
